Reference: ChEMBL document CHEMBL3991601, “The target landscape of clinical kinase drugs” (Science, 2017)
Activity calls are given as the source filed them.

Legend:
[1] = target: T1, STE20-related kinase adapter protein alpha (Homo sapiens, UniProt Q7RTN6)
T1 sequence (Q7RTN6 whole entry): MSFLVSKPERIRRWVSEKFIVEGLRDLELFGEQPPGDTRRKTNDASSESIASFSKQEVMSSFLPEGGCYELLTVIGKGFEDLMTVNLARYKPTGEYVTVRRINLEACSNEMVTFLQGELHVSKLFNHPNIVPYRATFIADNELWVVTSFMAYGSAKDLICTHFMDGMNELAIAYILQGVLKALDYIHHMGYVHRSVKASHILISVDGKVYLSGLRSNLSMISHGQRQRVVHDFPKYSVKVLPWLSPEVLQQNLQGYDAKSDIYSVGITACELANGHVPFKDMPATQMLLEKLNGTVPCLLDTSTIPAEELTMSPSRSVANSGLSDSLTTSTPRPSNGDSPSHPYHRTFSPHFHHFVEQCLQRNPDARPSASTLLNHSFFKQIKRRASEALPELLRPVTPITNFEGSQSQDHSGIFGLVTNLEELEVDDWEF

[2] = target: Mitogen-activated protein kinase 10 (Homo sapiens, UniProt P53779)
[3] = target: T2, Ephrin type-B receptor 4 (Homo sapiens, UniProt P54760)
T2 sequence (P54760 whole entry): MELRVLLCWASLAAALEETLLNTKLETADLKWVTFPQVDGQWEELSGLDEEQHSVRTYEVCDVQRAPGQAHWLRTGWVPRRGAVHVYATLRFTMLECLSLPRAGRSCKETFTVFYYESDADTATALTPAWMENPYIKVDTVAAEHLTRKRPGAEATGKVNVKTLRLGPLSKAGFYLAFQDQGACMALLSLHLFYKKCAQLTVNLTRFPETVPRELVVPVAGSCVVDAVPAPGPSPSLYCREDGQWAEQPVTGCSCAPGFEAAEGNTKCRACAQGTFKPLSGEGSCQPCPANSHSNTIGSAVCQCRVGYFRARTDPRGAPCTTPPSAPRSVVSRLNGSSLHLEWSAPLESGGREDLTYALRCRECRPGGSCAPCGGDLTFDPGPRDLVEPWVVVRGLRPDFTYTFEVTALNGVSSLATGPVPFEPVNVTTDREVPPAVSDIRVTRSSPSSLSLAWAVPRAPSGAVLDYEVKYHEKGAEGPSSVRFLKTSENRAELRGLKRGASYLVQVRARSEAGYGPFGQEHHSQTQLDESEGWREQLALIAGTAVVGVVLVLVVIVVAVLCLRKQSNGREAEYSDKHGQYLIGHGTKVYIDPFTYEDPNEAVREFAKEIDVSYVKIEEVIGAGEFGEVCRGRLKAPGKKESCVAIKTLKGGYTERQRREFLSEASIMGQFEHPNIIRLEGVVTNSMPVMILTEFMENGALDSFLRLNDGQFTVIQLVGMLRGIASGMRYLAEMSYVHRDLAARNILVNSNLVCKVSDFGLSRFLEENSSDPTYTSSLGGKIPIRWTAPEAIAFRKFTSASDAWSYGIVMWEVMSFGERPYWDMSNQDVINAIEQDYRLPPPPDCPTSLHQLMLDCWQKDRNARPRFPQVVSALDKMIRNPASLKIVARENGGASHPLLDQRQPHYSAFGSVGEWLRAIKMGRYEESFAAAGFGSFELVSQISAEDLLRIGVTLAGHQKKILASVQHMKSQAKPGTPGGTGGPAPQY

[4] = target: T3, ADP/ATP translocase 3 (Homo sapiens, UniProt P12236)
T3 sequence (P12236 whole entry): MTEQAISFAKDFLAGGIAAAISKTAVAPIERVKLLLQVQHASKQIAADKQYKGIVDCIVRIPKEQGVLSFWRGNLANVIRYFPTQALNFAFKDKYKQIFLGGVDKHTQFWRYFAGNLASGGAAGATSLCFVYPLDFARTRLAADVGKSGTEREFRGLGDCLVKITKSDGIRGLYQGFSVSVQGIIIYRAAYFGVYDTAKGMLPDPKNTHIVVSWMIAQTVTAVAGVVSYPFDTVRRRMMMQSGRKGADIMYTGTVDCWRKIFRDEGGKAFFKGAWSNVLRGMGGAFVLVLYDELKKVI

[5] = target: Midasin (Homo sapiens, UniProt Q9NU22)
[6] = target: DNA topoisomerase 2-alpha (Homo sapiens, UniProt P11388)
[7] = target: STE20-like serine/threonine-protein kinase (Homo sapiens, UniProt Q9H2G2)
[8] = target: T4, Acyl-CoA dehydrogenase family member 11 (Homo sapiens, UniProt Q709F0)
T4 sequence (Q709F0 whole entry): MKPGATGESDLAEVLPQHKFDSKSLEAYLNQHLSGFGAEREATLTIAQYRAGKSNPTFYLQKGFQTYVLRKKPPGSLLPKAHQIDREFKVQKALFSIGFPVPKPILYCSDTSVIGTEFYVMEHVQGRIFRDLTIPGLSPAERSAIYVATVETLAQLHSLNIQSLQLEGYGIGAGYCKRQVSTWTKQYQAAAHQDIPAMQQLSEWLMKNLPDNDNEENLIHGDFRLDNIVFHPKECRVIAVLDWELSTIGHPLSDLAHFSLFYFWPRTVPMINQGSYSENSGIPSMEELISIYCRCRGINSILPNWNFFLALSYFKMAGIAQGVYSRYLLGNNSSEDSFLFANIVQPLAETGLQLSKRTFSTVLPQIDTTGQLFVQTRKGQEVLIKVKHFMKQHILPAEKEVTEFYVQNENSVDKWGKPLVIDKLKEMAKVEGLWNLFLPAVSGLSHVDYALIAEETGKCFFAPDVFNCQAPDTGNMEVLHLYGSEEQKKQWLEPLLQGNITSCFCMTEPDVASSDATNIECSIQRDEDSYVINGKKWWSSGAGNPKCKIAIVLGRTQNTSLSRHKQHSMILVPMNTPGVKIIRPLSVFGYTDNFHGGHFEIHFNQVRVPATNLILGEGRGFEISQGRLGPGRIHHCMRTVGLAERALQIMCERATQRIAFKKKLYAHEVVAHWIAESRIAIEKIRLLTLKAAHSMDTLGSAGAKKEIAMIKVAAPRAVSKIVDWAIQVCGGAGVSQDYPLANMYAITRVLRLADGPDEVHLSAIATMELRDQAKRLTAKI

[9] = target: Serine/threonine-protein kinase N1 (Homo sapiens, UniProt Q16512)
[10] = target: Maternal embryonic leucine zipper kinase (Homo sapiens, UniProt Q14680)
Also: in the data inactive means no Kd found up to 30 µM.

Serine/threonine-protein kinase N1, sequence (Q16512 whole entry): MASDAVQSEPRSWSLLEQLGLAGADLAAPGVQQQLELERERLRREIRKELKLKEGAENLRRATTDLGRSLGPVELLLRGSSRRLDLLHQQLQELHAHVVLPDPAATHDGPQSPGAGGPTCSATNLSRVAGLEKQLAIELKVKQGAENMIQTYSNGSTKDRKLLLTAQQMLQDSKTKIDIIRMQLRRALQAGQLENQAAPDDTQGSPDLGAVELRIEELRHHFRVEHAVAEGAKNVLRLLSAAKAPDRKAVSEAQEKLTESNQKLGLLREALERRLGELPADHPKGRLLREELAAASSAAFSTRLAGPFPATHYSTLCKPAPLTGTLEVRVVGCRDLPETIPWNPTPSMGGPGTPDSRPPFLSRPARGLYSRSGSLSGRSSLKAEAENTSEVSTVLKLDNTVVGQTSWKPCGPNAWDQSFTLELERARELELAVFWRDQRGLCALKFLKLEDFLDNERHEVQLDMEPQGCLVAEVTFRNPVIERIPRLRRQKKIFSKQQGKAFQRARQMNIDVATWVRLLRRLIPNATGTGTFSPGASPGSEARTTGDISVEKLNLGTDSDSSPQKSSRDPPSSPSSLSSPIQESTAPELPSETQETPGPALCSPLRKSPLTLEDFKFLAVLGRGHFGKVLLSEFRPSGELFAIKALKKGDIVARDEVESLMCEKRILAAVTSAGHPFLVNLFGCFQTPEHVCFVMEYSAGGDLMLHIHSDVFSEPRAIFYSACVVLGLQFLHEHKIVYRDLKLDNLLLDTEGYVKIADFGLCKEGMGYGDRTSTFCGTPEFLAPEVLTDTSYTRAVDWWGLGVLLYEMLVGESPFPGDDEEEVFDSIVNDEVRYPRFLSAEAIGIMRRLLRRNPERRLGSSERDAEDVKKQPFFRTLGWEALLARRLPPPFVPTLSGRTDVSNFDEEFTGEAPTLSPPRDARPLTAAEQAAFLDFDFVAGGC
Mitogen-activated protein kinase 10, sequence (P53779 whole entry): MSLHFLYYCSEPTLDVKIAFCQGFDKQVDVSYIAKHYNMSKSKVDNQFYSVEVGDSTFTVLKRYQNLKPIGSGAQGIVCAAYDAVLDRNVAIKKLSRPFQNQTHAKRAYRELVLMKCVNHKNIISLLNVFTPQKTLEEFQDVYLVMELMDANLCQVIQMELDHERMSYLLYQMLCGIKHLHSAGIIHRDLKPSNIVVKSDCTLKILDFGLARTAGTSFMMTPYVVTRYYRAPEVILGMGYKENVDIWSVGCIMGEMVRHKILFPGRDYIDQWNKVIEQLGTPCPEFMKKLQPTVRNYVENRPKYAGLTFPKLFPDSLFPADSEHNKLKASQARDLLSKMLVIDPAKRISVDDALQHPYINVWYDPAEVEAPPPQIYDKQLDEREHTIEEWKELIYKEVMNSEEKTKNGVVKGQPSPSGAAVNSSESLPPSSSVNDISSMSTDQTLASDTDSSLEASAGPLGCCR
DNA topoisomerase 2-alpha, sequence (P11388 whole entry): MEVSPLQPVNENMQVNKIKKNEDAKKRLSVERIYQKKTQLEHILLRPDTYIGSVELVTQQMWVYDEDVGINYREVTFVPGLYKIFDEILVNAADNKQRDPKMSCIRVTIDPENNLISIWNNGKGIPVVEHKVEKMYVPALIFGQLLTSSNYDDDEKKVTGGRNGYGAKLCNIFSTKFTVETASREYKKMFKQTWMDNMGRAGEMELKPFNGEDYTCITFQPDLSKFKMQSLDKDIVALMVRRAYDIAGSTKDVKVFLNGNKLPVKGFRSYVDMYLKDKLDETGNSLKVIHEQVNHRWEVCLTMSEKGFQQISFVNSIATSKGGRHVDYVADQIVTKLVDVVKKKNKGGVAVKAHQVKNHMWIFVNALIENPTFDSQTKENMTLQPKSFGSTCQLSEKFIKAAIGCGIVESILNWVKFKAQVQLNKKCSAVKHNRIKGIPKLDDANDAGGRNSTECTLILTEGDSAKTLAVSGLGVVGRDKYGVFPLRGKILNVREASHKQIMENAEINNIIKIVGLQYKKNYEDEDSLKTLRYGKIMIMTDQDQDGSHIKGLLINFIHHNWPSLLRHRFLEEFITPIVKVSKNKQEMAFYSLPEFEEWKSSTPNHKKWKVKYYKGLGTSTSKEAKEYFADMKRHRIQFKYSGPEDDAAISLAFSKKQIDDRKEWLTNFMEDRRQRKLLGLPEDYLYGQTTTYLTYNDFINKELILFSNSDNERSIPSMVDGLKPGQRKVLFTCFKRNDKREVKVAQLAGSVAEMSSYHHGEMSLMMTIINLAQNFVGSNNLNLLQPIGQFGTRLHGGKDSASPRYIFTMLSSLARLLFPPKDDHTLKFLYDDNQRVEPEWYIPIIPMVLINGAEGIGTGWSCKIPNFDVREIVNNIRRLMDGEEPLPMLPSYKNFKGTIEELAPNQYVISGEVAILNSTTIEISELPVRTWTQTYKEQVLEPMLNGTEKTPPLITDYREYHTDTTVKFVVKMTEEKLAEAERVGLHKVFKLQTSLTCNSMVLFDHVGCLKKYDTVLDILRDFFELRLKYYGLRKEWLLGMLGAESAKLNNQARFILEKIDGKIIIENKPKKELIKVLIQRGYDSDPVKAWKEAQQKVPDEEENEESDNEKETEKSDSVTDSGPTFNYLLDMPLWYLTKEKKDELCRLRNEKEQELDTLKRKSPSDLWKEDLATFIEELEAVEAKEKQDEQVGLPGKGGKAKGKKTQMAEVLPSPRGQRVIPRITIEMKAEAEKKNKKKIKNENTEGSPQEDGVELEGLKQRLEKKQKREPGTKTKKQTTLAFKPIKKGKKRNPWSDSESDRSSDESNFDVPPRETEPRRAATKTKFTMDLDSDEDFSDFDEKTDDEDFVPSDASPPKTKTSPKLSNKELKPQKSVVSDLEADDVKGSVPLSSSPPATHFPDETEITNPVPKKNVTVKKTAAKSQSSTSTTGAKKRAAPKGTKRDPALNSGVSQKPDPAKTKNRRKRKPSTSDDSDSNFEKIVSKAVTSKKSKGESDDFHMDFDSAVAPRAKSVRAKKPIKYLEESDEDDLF
STE20-like serine/threonine-protein kinase, sequence (Q9H2G2 whole entry): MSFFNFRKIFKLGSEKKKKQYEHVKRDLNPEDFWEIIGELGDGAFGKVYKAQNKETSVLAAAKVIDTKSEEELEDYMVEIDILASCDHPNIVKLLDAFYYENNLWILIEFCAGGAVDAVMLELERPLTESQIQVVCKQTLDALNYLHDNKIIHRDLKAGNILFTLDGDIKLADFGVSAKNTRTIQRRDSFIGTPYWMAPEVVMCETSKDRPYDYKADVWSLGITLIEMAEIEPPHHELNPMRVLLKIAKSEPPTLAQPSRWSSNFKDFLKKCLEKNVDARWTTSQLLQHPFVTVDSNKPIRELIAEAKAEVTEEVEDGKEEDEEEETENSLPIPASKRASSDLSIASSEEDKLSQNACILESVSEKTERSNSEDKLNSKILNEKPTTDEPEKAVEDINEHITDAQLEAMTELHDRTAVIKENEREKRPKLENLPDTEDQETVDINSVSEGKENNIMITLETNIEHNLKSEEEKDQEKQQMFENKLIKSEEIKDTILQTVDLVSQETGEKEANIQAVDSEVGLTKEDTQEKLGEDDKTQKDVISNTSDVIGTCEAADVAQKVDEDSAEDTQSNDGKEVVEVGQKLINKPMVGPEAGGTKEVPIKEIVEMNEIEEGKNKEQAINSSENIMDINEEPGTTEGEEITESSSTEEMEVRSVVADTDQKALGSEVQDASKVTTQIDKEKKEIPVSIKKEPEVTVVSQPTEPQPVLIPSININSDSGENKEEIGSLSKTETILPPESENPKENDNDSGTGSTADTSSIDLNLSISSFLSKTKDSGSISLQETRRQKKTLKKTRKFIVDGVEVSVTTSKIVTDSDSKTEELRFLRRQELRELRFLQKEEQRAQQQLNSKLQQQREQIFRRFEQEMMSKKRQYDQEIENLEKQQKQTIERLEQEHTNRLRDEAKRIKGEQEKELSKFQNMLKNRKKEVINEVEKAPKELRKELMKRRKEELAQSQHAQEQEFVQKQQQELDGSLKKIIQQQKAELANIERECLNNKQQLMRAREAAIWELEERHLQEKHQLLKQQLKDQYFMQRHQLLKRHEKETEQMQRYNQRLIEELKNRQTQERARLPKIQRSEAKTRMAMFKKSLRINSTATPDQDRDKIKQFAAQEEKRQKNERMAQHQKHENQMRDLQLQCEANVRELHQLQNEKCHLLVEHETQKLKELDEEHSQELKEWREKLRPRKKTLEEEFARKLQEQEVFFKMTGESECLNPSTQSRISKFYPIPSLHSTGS
Maternal embryonic leucine zipper kinase, sequence (Q14680 whole entry): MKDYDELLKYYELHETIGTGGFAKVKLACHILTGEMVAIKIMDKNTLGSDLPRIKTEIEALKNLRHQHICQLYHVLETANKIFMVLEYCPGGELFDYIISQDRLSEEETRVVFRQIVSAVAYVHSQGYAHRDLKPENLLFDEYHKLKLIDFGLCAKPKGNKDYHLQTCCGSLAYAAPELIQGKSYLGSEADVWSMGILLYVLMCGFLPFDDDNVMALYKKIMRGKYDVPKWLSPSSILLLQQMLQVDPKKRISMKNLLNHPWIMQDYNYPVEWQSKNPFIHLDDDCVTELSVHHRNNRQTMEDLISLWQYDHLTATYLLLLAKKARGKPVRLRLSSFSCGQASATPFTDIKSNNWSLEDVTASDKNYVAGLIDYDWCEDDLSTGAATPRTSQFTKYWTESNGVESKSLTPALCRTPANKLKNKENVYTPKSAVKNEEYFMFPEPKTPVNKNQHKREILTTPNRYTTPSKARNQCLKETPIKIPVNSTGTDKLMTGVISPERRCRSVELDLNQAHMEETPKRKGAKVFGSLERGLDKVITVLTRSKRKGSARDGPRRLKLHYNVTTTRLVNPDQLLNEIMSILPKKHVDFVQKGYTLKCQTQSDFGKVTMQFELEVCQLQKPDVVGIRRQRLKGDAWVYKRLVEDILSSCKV

| SMILES | Kd [1] | Kd [2] | Kd [3] | Kd [4] | Kd [5] | Kd [6] | Kd [7] | Kd [8] | Kd [9] | Kd [10] |
| --- | --- | --- | --- | --- | --- | --- | --- | --- | --- | --- |
| COc1ccc(S(=O)(=O)N(C(C)=O)c2ccccc2/C=C/c2cc[n+]([O-])cc2)cc1 [HMN-214] | > 30 µM (inactive) | > 30 µM (inactive) | > 30 µM (inactive) | > 30 µM (inactive) | > 30 µM (inactive) | > 30 µM (inactive) | > 30 µM (inactive) | > 30 µM (inactive) | > 30 µM (inactive) | > 30 µM (inactive) |
| O=C(Nc1cc(C(F)(F)F)cc(C(F)(F)F)c1)c1cc(Cl)ccc1O [IMD-0354] | > 30 µM (inactive) | > 30 µM (inactive) | > 30 µM (inactive) | > 30 µM (inactive) | > 30 µM (inactive) | > 30 µM (inactive) | > 30 µM (inactive) | > 30 µM (inactive) | > 30 µM (inactive) | > 30 µM (inactive) |
| CNC(=O)c1cccc2cc(Oc3ccnc4cc(OCC5(N)CC5)c(OC)cc34)ccc12 [LUCITANIB] | > 30 µM (inactive) | > 30 µM (inactive) | > 30 µM (inactive) | > 30 µM (inactive) | > 30 µM (inactive) | > 30 µM (inactive) | > 30 µM (inactive) | > 30 µM (inactive) | > 30 µM (inactive) | > 30 µM (inactive) |
| NC1(c2ccc(-c3nc4ccn5c(=O)[nH]nc5c4cc3-c3ccccc3)cc2)CCC1 [MK-2206] | > 30 µM (inactive) | > 30 µM (inactive) | > 30 µM (inactive) | > 30 µM (inactive) | > 30 µM (inactive) | > 30 µM (inactive) | > 30 µM (inactive) | > 30 µM (inactive) | > 30 µM (inactive) | > 30 µM (inactive) |
| FC(F)(F)c1ccc(/C=C/c2nc(COc3ccc(CCCCn4ccnn4)cc3)co2)cc1 [MUBRITINIB] | > 30 µM (inactive) | > 30 µM (inactive) | > 30 µM (inactive) | > 30 µM (inactive) | > 30 µM (inactive) | > 30 µM (inactive) | > 30 µM (inactive) | > 30 µM (inactive) | > 30 µM (inactive) | > 30 µM (inactive) |
| COc1ncc(-c2ccc3nccc(-c4ccnnc4)c3c2)cc1NS(=O)(=O)c1ccc(F)cc1F [OMIPALISIB] | > 30 µM (inactive) | > 30 µM (inactive) | > 30 µM (inactive) | > 30 µM (inactive) | > 30 µM (inactive) | > 30 µM (inactive) | > 30 µM (inactive) | > 30 µM (inactive) | > 30 µM (inactive) | > 30 µM (inactive) |
| CCOc1cc2ncc(C#N)c(Nc3ccc(F)c(Cl)c3)c2cc1NC(=O)/C=C/CN(C)C [PELITINIB] | > 30 µM (inactive) | > 30 µM (inactive) | > 30 µM (inactive) | > 30 µM (inactive) | > 30 µM (inactive) | > 30 µM (inactive) | > 30 µM (inactive) | > 30 µM (inactive) | > 30 µM (inactive) | > 30 µM (inactive) |
| Cc1cnc(NC(=O)Nc2cc(Br)c(C)cc2OC[C@@H]2CNCCO2)cn1 [RABUSERTIB] | > 30 µM (inactive) | > 30 µM (inactive) | > 30 µM (inactive) | > 30 µM (inactive) | > 30 µM (inactive) | > 30 µM (inactive) | > 30 µM (inactive) | > 30 µM (inactive) | > 30 µM (inactive) | > 30 µM (inactive) |
| CNC(=O)c1cc(Oc2ccc(NC(=O)Nc3cc(C(C)(C)C)nn3-c3ccc4ncccc4c3)c(F)c2)ccn1 [REBASTINIB] | > 30 µM (inactive) | 0.072 µM | > 30 µM (inactive) | > 30 µM (inactive) | > 30 µM (inactive) | > 30 µM (inactive) | > 30 µM (inactive) | > 30 µM (inactive) | > 30 µM (inactive) | > 30 µM (inactive) |

The next lines start with the values.

| Kd [1] | Kd [2] | Kd [3] | Kd [4] | Kd [5] | Kd [6] | Kd [7] | Kd [8] | Kd [9] | Kd [10] | SMILES |
| --- | --- | --- | --- | --- | --- | --- | --- | --- | --- | --- |
| > 30 µM (inactive) | > 30 µM (inactive) | > 30 µM (inactive) | > 30 µM (inactive) | > 30 µM (inactive) | > 30 µM (inactive) | > 30 µM (inactive) | > 30 µM (inactive) | > 30 µM (inactive) | > 30 µM (inactive) | CO[C@H]1C[C@@H]2CC[C@@H](C)[C@@](O)(O2)C(=O)C(=O)N2CCCC[C@H]2C(=O)O[C@H]([C@H](C)C[C@@H]2CC[C@@H](OP(C)(C)=O)[C@H](OC)C2)CC(=O)[C@H](C)/C=C(\C)[C@@H](O)[C@@H](OC)C(=O)[C@H](C)C[C@H](C)/C=C/C=C/C=C/1C [RIDAFOROLIMUS] |
| > 30 µM (inactive) | > 30 µM (inactive) | > 30 µM (inactive) | > 30 µM (inactive) | > 30 µM (inactive) | > 30 µM (inactive) | > 30 µM (inactive) | > 30 µM (inactive) | > 30 µM (inactive) | > 30 µM (inactive) | N#CC1(c2ccc(NC(=O)c3cccnc3NCc3ccncc3)cc2)CCCC1 [RIVOCERANIB] |
| > 30 µM (inactive) | > 30 µM (inactive) | > 30 µM (inactive) | > 30 µM (inactive) | > 30 µM (inactive) | > 30 µM (inactive) | > 30 µM (inactive) | > 30 µM (inactive) | 0.019 µM (active) | > 30 µM (inactive) | O=c1[nH]ccc2cc(OC3CCNCC3)ccc12 [SAR-407899 FREE BASE] |
| > 30 µM (inactive) | > 30 µM (inactive) | > 30 µM (inactive) | > 30 µM (inactive) | > 30 µM (inactive) | > 30 µM (inactive) | > 30 µM (inactive) | > 30 µM (inactive) | > 30 µM (inactive) | > 30 µM (inactive) | CO[C@H]1C[C@@H]2CC[C@@H](C)[C@@](O)(O2)C(=O)C(=O)N2CCCC[C@H]2C(=O)O[C@H]([C@H](C)C[C@@H]2CC[C@@H](O)[C@H](OC)C2)CC(=O)[C@H](C)/C=C(\C)[C@@H](O)[C@@H](OC)C(=O)[C@H](C)C[C@H](C)/C=C/C=C/C=C/1C [SIROLIMUS] |
